Measured values as given in patent US20110117212A1, “THERAPEUTIC COMBINATION COMPRISING AN AURORA KINASE INHIBITOR AND AN ANTINEOPLASTIC AGENT” (priority 2008, published 2011).

Assays:
[1] = tested on: A2780 human ovarian carcinoma; assay: In vivo antitumor efficacy in combination with cisplatin; settings: A2780 s.c. in athymic mice; Compound 1 15 mg/kg ip BID days 13-17; cisplatin 8 mg/kg iv day 17; combination: same doses and days
Description: (§1) A2780 human ovarian carcinoma cells were obtained from American Type Culture Collection (Rockville, Md.) and were maintained in vitro as continuous cultures in RPMI medium supplemented with 10% FBS, at 37° C., 5% CO2. For in vivo experiments 8×10^6 A2780 cells were implanted subcutaneously in athymic mice.
(§2) The treatment started when tumors were palpable (day 13). Both compounds were prepared immediately before treatment.
(§3) Tumor growth was assessed by caliper. […] Animals were sacrificed on day 37 after tumor implant, day 24 from the start of treatments and tumors were weighted. The effect of the antitumor treatment was evaluated as percentage of tumor growth inhibition of the treated group respect to control.

[2] = tested on: BX-PC3 human pancreatic carcinoma; assay: In vivo antitumor efficacy in combination with gemcitabine; settings: BX-PC3 s.c. in athymic mice; compound 1 15 mg/kg ip BID days 9-17; gemcitabine 80 mg/kg iv days 9, 13, 17; combination: gemcitabine days 9, 13, 17, compound 1 days 10, 11, 12, 14, 15, 16, 18, 19, 20
Description: Fragments of BX-PC3 human pancreatic carcinoma were implanted subcutaneously in athymic mice. […] The treatment with gemcitabine started at day 9 after tumor implantation, when tumors were palpable. Compounds were prepared immediately before treatments.
When combined, gemcitabine was administered at days 9, 13, 17 and compound 1 was administered for the following 3 days after gemcitabine administration. […] Tumor growth was assessed by caliper. […] The effect of the antitumor treatment was evaluated as percentage of tumor growth inhibition (TGI %). Toxicity was evaluated on the basis of body weight reduction.

[3] = tested on: A2780 human ovarian carcinoma; assay: In vivo antitumor efficacy of the combination with irinotecan; settings: for TGI %: A2780 s.c. in athymic mice, Compound 1 30 mg/kg ip BID days 13-17, irinotecan 60 mg/kg iv day 13, combination: irinotecan 50 mg/kg day 13 + Compound 1 30 mg/kg days 13-17
Description: as §1, with “A2780” for “A2780 cells”, “mice. This tumor model was selected because it was sensitive to platinum derivatives and also on the basis of use of this drugs in ovarian cancer.” for “mice.”
as §2
as §3, with “When combined, compound 1 was administered from day 1 to day 5, irinotecan at day 1. […] Tumor” for “Tumor”

[4] = tested on: DU145 prostate carcinoma; settings: DU145 s.c. in athymic mice; delay to reach 1 g tumor; Compound 1 30 mg/kg ip BID days 10-18; docetaxel 7.5 mg/kg iv days 10, 14, 18; combination: docetaxel days 10, 14, 18, Compound 1 days 11, 12, 13, 15, 16, 17, 19, 20, 21
Description: Balb, Nu\Nu male mice, from Harlan (Italy), were maintained in cages with paper filter cover, food and bedding sterilized and water acidified. 2.5×10^6 DU145 prostate carcinoma cells (from the American Type Culture Collection) were injected subcutaneously in athymic mice.
The treatment started 10 days later tumor cells injection when tumors were palpable. Docetaxel was prepared immediately before treatment, compound 1 of formula (A) was prepared daily, on the basis of known stability of the compound.
Compound 1 was administered by intraperitoneal route in a volume of 10 ml/kg at the doses of 30 mg/kg twice a day (BID) for 9 days (days 10 to 18). Docetaxel was administered by intravenous route in a volume of 10 ml/kg at the dose of 7.5 mg/kg on days 10, 14, 18 from the days of cell injection. When combined, compound 1 was administered in the interval between the docetaxel treatments at days 11, 12, 13, 15, 16, 17, 19, 20 and 21. Tumor growth and body weight were measured every 3 days. Tumor growth was assessed by caliper. The two diameters were recorded and the tumor weight was calculated according the following formula:
length (mm)×width^2/2. The effect of the antitumor treatment was evaluated as the delay in the onset of an exponential growth of the tumor (see for references, Anticancer drugs 7:437-60, 1996). […] Toxicity was evaluated on the basis of body weigh reduction.

Row | Compound | TGI % [1] [%] | TGI % [2] [%] | TGI % [3] [%] | T-C [4] [days] | Toxicity ([3]; evaluated on the basis of body weight reduction, A2780 mice, Compound 1 30 mg/kg ip BID, irinotecan iv, alone or combined)
1 | N.N.[Cl][Pt][Cl] [Cisplatin, cisplatin] | 21 | – | – | – | –
2 | CO[C@@H](C(=O)N1Cc2[nH]nc(NC(=O)c3ccc(N4CCN(C)CC4)cc3)c2C1)c1ccccc1 [Compound 1, N-{5-[(2R)-2-methoxy-2-phenylethanoyl]-1,4,5,6-tetrahydropyrrolo[3,4-c]pyrazol-3-yl}-4-(4-methylpiperazin-1-yl)benzamide] | 46 | 53 | 72.3 | 5.3 | –
3 | CC(=O)O[C@@]12CO[C@@H]1C[C@H](O)[C@@]1(C)C(=O)[C@H](O)C3=C(C)[C@@H](OC(=O)[C@H](O)[C@@H](NC(=O)OC(C)(C)C)c4ccccc4)C[C@@](O)([C@@H](OC(=O)c4ccccc4)[C@H]21)C3(C)C [docetaxel] | – | – | – | 3.7 | –
4 | Nc1ccn([C@@H]2O[C@H](CO)[C@@H](O)C2(F)F)c(=O)n1 [gemcitabine] | – | 61 | – | – | –
5 | CCc1c2c(nc3ccc(OC(=O)N4CCC(N5CCCCC5)CC4)cc13)-c1cc3c(c(=O)n1C2)COC(=O)[C@]3(O)CC [irinotecan] | – | – | 62 | – | 0/7
